{
  "source": "the CombiSolv-Exp solvation set (Vermeire and Green 2021)",
  "assay": "solvent given as SMILES",
  "key": {"[1]": {"conditions": "in CCCCCCCCC=CCCCCCCCC(=O)OCC(COC(=O)CCCCCCCC=CCCCCCCCC)OC(=O)CCCCCCCC=CCCCCCCCC"}},
  "data": [
    {"smiles": "O=C(C(=O)c1ccccc1)c1ccccc1", "values": [
      {"measurement": "solvation free energy, 298 K", "setting": "in C1CCOC1", "result": -12.6, "unit": "kcal/mol"},
      {"measurement": "solvation free energy, 298 K", "setting": "in C1COCCO1", "result": -12.5, "unit": "kcal/mol"},
      {"measurement": "solvation free energy, 298 K", "setting": "in CC(=O)N(C)C", "result": -12.6, "unit": "kcal/mol"},
      {"measurement": "solvation free energy, 298 K", "setting": "in CC(C)(C)O", "result": -10.8, "unit": "kcal/mol"},
      {"measurement": "solvation free energy, 298 K", "setting": "in CC(C)=O", "result": -12.5, "unit": "kcal/mol"},
      {"measurement": "solvation free energy, 298 K", "setting": "in CC(C)CC(C)(C)C", "result": -10.2, "unit": "kcal/mol"},
      {"measurement": "solvation free energy, 298 K", "setting": "in CC(C)CC(C)O", "result": -10.8, "unit": "kcal/mol"},
      {"measurement": "solvation free energy, 298 K", "setting": "in CC(C)CCO", "result": -10.8, "unit": "kcal/mol"},
      {"measurement": "solvation free energy, 298 K", "setting": "in CC(C)CO", "result": -10.8, "unit": "kcal/mol"},
      {"measurement": "solvation free energy, 298 K", "setting": "in CC(C)O", "result": -10.8, "unit": "kcal/mol"},
      {"measurement": "solvation free energy, 298 K", "setting": "in CC(C)OC(C)C", "result": -11.2, "unit": "kcal/mol"},
      {"measurement": "solvation free energy, 298 K", "setting": "in CC(C)OCCO", "result": -11.8, "unit": "kcal/mol"},
      {"measurement": "solvation free energy, 298 K", "setting": "in CCC(C)(C)O", "result": -11.1, "unit": "kcal/mol"},
      {"measurement": "solvation free energy, 298 K", "setting": "in CCC(C)=O", "result": -12.5, "unit": "kcal/mol"},
      {"measurement": "solvation free energy, 298 K", "setting": "in CCC(C)O", "result": -10.9, "unit": "kcal/mol"},
      {"measurement": "solvation free energy, 298 K", "setting": "in CCCC(C)O", "result": -10.9, "unit": "kcal/mol"},
      {"measurement": "solvation free energy, 298 K", "setting": "in CCCCC(CC)CO", "result": -10.8, "unit": "kcal/mol"},
      {"measurement": "solvation free energy, 298 K", "setting": "in CCCCCC", "result": -10.3, "unit": "kcal/mol"},
      {"measurement": "solvation free energy, 298 K", "setting": "in CCCCCCC", "result": -10.3, "unit": "kcal/mol"},
      {"measurement": "solvation free energy, 298 K", "setting": "in CCCCCCCC", "result": -10.3, "unit": "kcal/mol"},
      {"measurement": "solvation free energy, 298 K", "setting": "[1]", "result": -11.2, "unit": "kcal/mol"},
      {"measurement": "solvation free energy, 298 K", "setting": "in CCCCCCCCCC", "result": -10.3, "unit": "kcal/mol"},
      {"measurement": "solvation free energy, 298 K", "setting": "in CCCCCCCCCCO", "result": -10.9, "unit": "kcal/mol"},
      {"measurement": "solvation free energy, 298 K", "setting": "in CCCCCCCCO", "result": -10.8, "unit": "kcal/mol"},
      {"measurement": "solvation free energy, 298 K", "setting": "in CCCCCCCO", "result": -10.9, "unit": "kcal/mol"},
      {"measurement": "solvation free energy, 298 K", "setting": "in CCCCCCO", "result": -10.9, "unit": "kcal/mol"},
      {"measurement": "solvation free energy, 298 K", "setting": "in CCCCCO", "result": -11, "unit": "kcal/mol"},
      {"measurement": "solvation free energy, 298 K", "setting": "in CCCCCl", "result": -12.1, "unit": "kcal/mol"},
      {"measurement": "solvation free energy, 298 K", "setting": "in CCCCO", "result": -11, "unit": "kcal/mol"},
      {"measurement": "solvation free energy, 298 K", "setting": "in CCCCOC(C)=O", "result": -12.2, "unit": "kcal/mol"},
      {"measurement": "solvation free energy, 298 K", "setting": "in CCCCOCCO", "result": -11.8, "unit": "kcal/mol"},
      {"measurement": "solvation free energy, 298 K", "setting": "in CCCO", "result": -11.1, "unit": "kcal/mol"},
      {"measurement": "solvation free energy, 298 K", "setting": "in CCCOCCO", "result": -11.8, "unit": "kcal/mol"},
      {"measurement": "solvation free energy, 298 K", "setting": "in CCO", "result": -11.1, "unit": "kcal/mol"},
      {"measurement": "solvation free energy, 298 K", "setting": "in CCOC(C)=O", "result": -12.3, "unit": "kcal/mol"},
      {"measurement": "solvation free energy, 298 K", "setting": "in CCOCC", "result": -11.8, "unit": "kcal/mol"},
      {"measurement": "solvation free energy, 298 K", "setting": "in CCOCCO", "result": -11.9, "unit": "kcal/mol"},
      {"measurement": "solvation free energy, 298 K", "setting": "in CO", "result": -11.2, "unit": "kcal/mol"},
      {"measurement": "solvation free energy, 298 K", "setting": "in COC(C)(C)C", "result": -11.8, "unit": "kcal/mol"},
      {"measurement": "solvation free energy, 298 K", "setting": "in COC(C)=O", "result": -12.4, "unit": "kcal/mol"},
      {"measurement": "solvation free energy, 298 K", "setting": "in COC(C)CCO", "result": -11.8, "unit": "kcal/mol"},
      {"measurement": "solvation free energy, 298 K", "setting": "in ClC(Cl)(Cl)Cl", "result": -12, "unit": "kcal/mol"},
      {"measurement": "solvation free energy, 298 K", "setting": "in ClCCCl", "result": -12.7, "unit": "kcal/mol"},
      {"measurement": "solvation free energy, 298 K", "setting": "in Clc1ccccc1", "result": -12.4, "unit": "kcal/mol"},
      {"measurement": "solvation free energy, 298 K", "setting": "in Fc1ccccc1", "result": -12.4, "unit": "kcal/mol"},
      {"measurement": "solvation free energy, 298 K", "setting": "in O", "result": -6.64, "unit": "kcal/mol"},
      {"measurement": "solvation free energy, 298 K", "setting": "in O=C1CCCCC1", "result": -12.6, "unit": "kcal/mol"}
    ]},
    {"smiles": "ClC(Cl)=C(c1ccc(Cl)cc1)c1ccc(Cl)cc1", "values": [
      {"measurement": "solvation free energy, 298 K", "setting": "[1]", "result": -12.8, "unit": "kcal/mol"},
      {"measurement": "solvation free energy, 298 K", "setting": "in CCCCCCCCO", "result": -13.2, "unit": "kcal/mol"},
      {"measurement": "solvation free energy, 298 K", "setting": "in O", "result": -3.78, "unit": "kcal/mol"}
    ]},
    {"smiles": "CCOC", "values": [
      {"measurement": "solvation free energy, 298 K", "setting": "in O", "result": -2.1, "unit": "kcal/mol"}
    ]},
    {"smiles": "c1ccc2nc3ccccc3cc2c1", "values": [
      {"measurement": "solvation free energy, 298 K", "setting": "in O", "result": -6.75, "unit": "kcal/mol"}
    ]},
    {"smiles": "Clc1ccc(Br)cc1", "values": [
      {"measurement": "solvation free energy, 298 K", "setting": "in CC(C)CO", "result": -6.51, "unit": "kcal/mol"},
      {"measurement": "solvation free energy, 298 K", "setting": "in CCCCOCCCC", "result": -7.08, "unit": "kcal/mol"},
      {"measurement": "solvation free energy, 298 K", "setting": "in COC(C)(C)C", "result": -7.27, "unit": "kcal/mol"},
      {"measurement": "solvation free energy, 298 K", "setting": "in O", "result": -1.61, "unit": "kcal/mol"}
    ]},
    {"smiles": "CC(=O)Cc1ccccc1", "values": [
      {"measurement": "solvation free energy, 298 K", "setting": "in O", "result": -5.62, "unit": "kcal/mol"}
    ]},
    {"smiles": "FC(F)(F)c1cccc(C(F)(F)F)c1", "values": [
      {"measurement": "solvation free energy, 298 K", "setting": "in O", "result": 1.07, "unit": "kcal/mol"}
    ]},
    {"smiles": "CCCCCCCC(C)O", "note": "(stereo not drawn)", "values": [
      {"measurement": "solvation free energy, 298 K", "setting": "in O", "result": -3.57, "unit": "kcal/mol"}
    ]},
    {"smiles": "ON=C1CCCCC1", "values": [
      {"measurement": "solvation free energy, 298 K", "setting": "in CCCCCC", "result": -6.16, "unit": "kcal/mol"}
    ]},
    {"smiles": "O=[N+]([O-])c1ccc(O)c([N+](=O)[O-])c1", "values": [
      {"measurement": "solvation free energy, 298 K", "setting": "in CCCCCC", "result": -8.09, "unit": "kcal/mol"},
      {"measurement": "solvation free energy, 298 K", "setting": "in CCCCCCC", "result": -8.08, "unit": "kcal/mol"},
      {"measurement": "solvation free energy, 298 K", "setting": "in CCCCCCCC", "result": -8.05, "unit": "kcal/mol"},
      {"measurement": "solvation free energy, 298 K", "setting": "in O", "result": -7.61, "unit": "kcal/mol"}
    ]},
    {"smiles": "OC1CCCCCC1", "values": [
      {"measurement": "solvation free energy, 298 K", "setting": "in O", "result": -5.48, "unit": "kcal/mol"}
    ]},
    {"smiles": "OCCOCCOCCO", "values": [
      {"measurement": "solvation free energy, 298 K", "setting": "in CCCCCCC", "result": -7.04, "unit": "kcal/mol"}
    ]},
    {"smiles": "C=C(C)C1CC=C(C=O)CC1", "note": "(stereo not drawn)", "values": [
      {"measurement": "solvation free energy, 298 K", "setting": "in O", "result": -4.09, "unit": "kcal/mol"}
    ]},
    {"smiles": "C=CC1(C)CCC(=C(C)C)CC1C(=C)C", "note": "(stereo not drawn)", "values": [
      {"measurement": "solvation free energy, 298 K", "setting": "in O", "result": -0.35, "unit": "kcal/mol"}
    ]},
    {"smiles": "CCCCOCC(C)O", "note": "(stereo not drawn)", "values": [
      {"measurement": "solvation free energy, 298 K", "setting": "in O", "result": -5.73, "unit": "kcal/mol"}
    ]},
    {"smiles": "CCCCOC(=O)c1ccccc1O", "values": [
      {"measurement": "solvation free energy, 298 K", "setting": "in O", "result": -3.51, "unit": "kcal/mol"}
    ]},
    {"smiles": "CCSc1nc(NC(C)C)nc(NC(C)C)n1", "values": [
      {"measurement": "solvation free energy, 298 K", "setting": "in O", "result": -9, "unit": "kcal/mol"}
    ]},
    {"smiles": "CCCCCI", "values": [
      {"measurement": "solvation free energy, 298 K", "setting": "in O", "result": -0.14, "unit": "kcal/mol"}
    ]},
    {"smiles": "CCCCCCCOC(=O)c1ccccc1C(=O)OCCCCCC", "values": [
      {"measurement": "solvation free energy, 298 K", "setting": "in O", "result": -6.67, "unit": "kcal/mol"}
    ]}
  ]
}
